Assay [1] deals with T1, hOAT (human ornithine δ-aminotransferase) (Homo sapiens, UniProt P04181).
T1 construct: gene OAT; untagged, pET43a, E. coli BL21(DE3)pLysS; DEAE and Superdex 200; tetramer in equilibrium with dimer, dimer is the functional unit
T1 sequence (P04181 26-439): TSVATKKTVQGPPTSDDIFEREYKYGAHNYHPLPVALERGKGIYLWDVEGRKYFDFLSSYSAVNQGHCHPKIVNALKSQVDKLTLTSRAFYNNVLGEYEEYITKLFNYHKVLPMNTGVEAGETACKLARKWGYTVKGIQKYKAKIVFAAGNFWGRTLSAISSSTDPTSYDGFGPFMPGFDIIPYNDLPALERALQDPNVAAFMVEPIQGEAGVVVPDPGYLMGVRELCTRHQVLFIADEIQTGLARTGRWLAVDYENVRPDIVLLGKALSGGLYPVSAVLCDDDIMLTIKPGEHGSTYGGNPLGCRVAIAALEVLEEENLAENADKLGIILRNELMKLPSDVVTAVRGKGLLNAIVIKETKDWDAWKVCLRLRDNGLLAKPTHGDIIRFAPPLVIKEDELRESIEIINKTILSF
Put plainly: thermal denaturation followed by CD at […] nm, holo versus apo. The settings on record: 50 mM Hepes, pH 7.4, 0.5 M NaCl; tetrameric form; covalent (internal aldimine with Lys292). The assay is classed as binding.

Assay [2] addresses T2, hOAT (human ornithine δ-aminotransferase) (Homo sapiens, UniProt P04181, R217A).
T2 construct: gene OAT; untagged, pET43a, E. coli BL21(DE3)pLysS; DEAE and Superdex 200; tetramer in equilibrium with dimer, dimer is the functional unit
T2 sequence (P04181 26-439 R217A): T1 sequence (P04181 26-439) with R192A
The assay is described as follows: quenching of intrinsic fluorescence of apoenzyme at […] nm. The assay is classed as binding. The settings on record: read-out: KD(PLP).

This note sets out measurements from publication PMC5432616, “Oligomeric State and Thermal Stability of Apo- and Holo- Human Ornithine δ-Aminotransferase” (The Protein Journal, 2017).

Changes are numbered by the printed parent chain.

In general, Kd refers to the concentration at which binding is half-saturated. As for `Cc1ncc(COP(=O)(O)O)c(C=O)c1O` [PLP], the “dTm (apparent Tm, holo minus apo)” value in assay [1] was ~ 21 °C. In assay [2], the dissociation constant Kd stood at 0.28 ± 0.3 µM.
